The source of these data is US9593309B2, “Media for culturing, preserving, and administering regenerative cells” (InGeneron, Inc., priority 2012, dated 2017).

The test system of test [1] is Ad-MSCs (canine adipose SVF cells). In words: Ad-MSC proliferation, nucleated cell counts (Syto13) of plated adipose SVF cells. It counts as cell-based. To be noted: concentration not given. Here is the method:
Assays for cell proliferation, colony forming units (CFU), gene expression analyses, cell surface markers, and chondrogenic and osteogenic differentiation were performed. Cell growth and Colony Forming Units (CFU) were grown in monolayer on tissue culture grade plastic in alpha MEM, 20% FBS (v/v), pen/strep. Nucleated cell counts were performed by staining with Syto13 (Invitrogen) followed by hemacytometer counting under fluorescence microscopy. Gene expression analysis was performed by quantitative RT-PCR profiling, BioRad iQ. Flow Activated Cell Storing (FACS) analyses were performed at M.D. Anderson Cancer Center FACS Core Facilities, Houston, Tex. by GALLIOS Flow Cytometry Instruments (Beckman Coulter). […]
Media was changed at days 3 and 6. Nucleated cell counts were performed by Syto13 staining followed by hemacytometer counting under fluorescence microscopy (FIG. 1B).
Fresh canine adipose SVF cells were plated at equal nucleated cell density and grown for 7 days in culture on tissue culture plastic in the presence of complete growth media and the respective concentrations (v/v) of GAG formulation. Nucleated cell counts were performed by Syto13 staining followed by hemacytometer counting under fluorescence microscopy. […]

Test [2] deals with Sox2. Nature of the test: Sox2 mRNA level in cultured Ad-MSCs, normalized to β-Actin. It counts as cell-based, canine. To be noted: 5% (v/v) formulation, 6 days culture, vs other GAG formulations. As for the experimental part:
Assays for cell proliferation, colony forming units (CFU), gene expression analyses, cell surface markers, and chondrogenic and osteogenic differentiation were performed. Cell growth and Colony Forming Units (CFU) were grown in monolayer on tissue culture grade plastic in alpha MEM, 20% FBS (v/v), pen/strep. Nucleated cell counts were performed by staining with Syto13 (Invitrogen) followed by hemacytometer counting under fluorescence microscopy. Gene expression analysis was performed by quantitative RT-PCR profiling, BioRad iQ. Flow Activated Cell Storing (FACS) analyses were performed at M.D. Anderson Cancer Center FACS Core Facilities, Houston, Tex. by GALLIOS Flow Cytometry Instruments (Beckman Coulter). For osteogenic and chondrogenic differentiation, cells were cultured in STEMPRO induction media (Invitrogen, Carlsbad, Calif.) for 14 days, fixed in 4% formalin, and stained with Alzarin red and Alcian Blue, respectively. Statistical analyses were performed by ANOVA.
Canine Ad-MSCs were grown for 6 days in culture in the presence of complete growth media and the respective 5% (v/v) GAG formulations. Magnification=100×. Sox2 levels, a marker of stem cell proliferation, were measured in total RNA samples and normalized to β-Actin mRNA. Here “GAG” represents poly-sulfated glycosaminoglycan (ADEQUAN).

Consider hyaluronic acid [HA], for which the “effect on cell proliferation when added to culture media” value in test [1] is recorded as “pro-mitotic, but to a lesser magnitude”. Further, the Sox2 levels entry in test [2] is given as “qualitatively similar, but of lesser magnitude”.
